Reference: patent publication US20230286958A1, “PLASMA KALLIKREIN INHIBITORS” (Merck Sharp & Dohme LLC, priority 2020, published 2023)

Experiments:
Human plasma kallikrein = Human plasma kallikrein (Homo sapiens (Human), UniProt P03952); experiment: Kallikrein Assay (fluorogenic substrate Acetyl-K-P-R-AFC); assay type: biochemical; details: Plasma Kallikrein (PKal)
How it was run: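 Ki is derived from IC50 with the Cheng-Prusoff equation, and IC50 from the inflection point of a four-parameter logistic curve. The rate of AFC release is read with 0.5 nM purified enzyme and […] substrate at room temperature or 37 °C.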

human Factor XIa = human Factor XIa (Homo sapiens (Human), UniProt P03951); experiment: Factor XIa Assay (fluorogenic substrate GPR-AFC); assay type: biochemical; details: Factor XIa (FXIa)
human Factor XIa, sequence (P03951 388-625 limits assumed): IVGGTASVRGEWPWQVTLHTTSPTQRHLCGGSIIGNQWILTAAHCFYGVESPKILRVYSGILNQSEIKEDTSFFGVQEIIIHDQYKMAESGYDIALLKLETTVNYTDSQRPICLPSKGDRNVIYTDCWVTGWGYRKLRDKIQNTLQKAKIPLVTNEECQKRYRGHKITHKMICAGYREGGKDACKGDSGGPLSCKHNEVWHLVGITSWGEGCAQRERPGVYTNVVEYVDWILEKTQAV
human Factor XIa, sequence (P03951 19-387 partner limits assumed): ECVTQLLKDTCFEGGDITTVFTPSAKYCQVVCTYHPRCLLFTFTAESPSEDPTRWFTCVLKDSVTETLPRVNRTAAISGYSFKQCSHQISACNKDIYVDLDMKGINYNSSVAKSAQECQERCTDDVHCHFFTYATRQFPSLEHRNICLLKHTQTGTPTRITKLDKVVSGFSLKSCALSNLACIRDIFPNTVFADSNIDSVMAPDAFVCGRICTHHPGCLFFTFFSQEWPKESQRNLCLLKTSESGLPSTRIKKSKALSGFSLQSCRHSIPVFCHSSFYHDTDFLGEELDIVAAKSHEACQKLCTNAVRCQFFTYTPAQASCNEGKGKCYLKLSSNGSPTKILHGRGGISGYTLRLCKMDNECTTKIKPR

Human plasma kallikrein, sequence (P03952 391-638): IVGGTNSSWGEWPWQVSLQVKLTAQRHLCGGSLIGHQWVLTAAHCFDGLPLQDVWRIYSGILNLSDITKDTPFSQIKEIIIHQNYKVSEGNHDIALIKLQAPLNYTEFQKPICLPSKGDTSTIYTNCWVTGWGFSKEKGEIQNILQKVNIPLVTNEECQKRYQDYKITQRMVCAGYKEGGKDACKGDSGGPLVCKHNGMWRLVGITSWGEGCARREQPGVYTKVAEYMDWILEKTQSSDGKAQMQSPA
Human plasma kallikrein, sequence (P03952 20-390 partner): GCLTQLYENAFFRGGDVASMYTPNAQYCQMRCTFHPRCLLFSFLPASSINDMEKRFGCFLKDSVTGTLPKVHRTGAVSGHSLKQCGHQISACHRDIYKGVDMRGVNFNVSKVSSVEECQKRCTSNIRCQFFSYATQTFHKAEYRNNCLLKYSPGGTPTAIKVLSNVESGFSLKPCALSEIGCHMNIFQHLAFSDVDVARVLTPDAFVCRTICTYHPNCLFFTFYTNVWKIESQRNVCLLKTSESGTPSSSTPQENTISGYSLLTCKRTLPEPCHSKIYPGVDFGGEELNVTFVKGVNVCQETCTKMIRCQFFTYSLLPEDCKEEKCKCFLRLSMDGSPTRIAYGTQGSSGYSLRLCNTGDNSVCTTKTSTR

Row | SMILES | IC50 (Human plasma kallikrein) [µM] | IC50 (human Factor XIa) [µM]
1 | Cc1cc(C(C)n2cc(NC(=O)c3cc(-c4c(C(F)F)ccc(Cl)c4F)c[n+]([O-])c3)cn2)cnc1N1C[C@H]2C[C@H]2C1=O (single isomer, unassigned) [Example 106, 5-(3-Chloro-6-(difluoromethyl)-2-fluorophenyl)-N-(1-((S or R)-1-(5-methyl-6-((1R,5S)-2-oxo-3-azabicyclo[3.1.0]hexan-3-yl)pyridin-3-yl)ethyl)-1H-pyrazol-4-yl)-1-(l1-oxidanyl)-114-pyridine-3-carboxamide] | 0.0014 | 0.103
2 | Cc1cc(C(C)n2cc(NC(=O)c3cc(-c4c(C(F)F)ccc(Cl)c4F)c[n+]([O-])c3)cn2)cnc1N1C[C@H]2C[C@H]2C1=O (single isomer, unassigned) [Example 107, 5-(3-Chloro-6-(difluoromethyl)-2-fluorophenyl)-N-(1-((R or S)-1-(5-methyl-6-((1R,5S)-2-oxo-3-azabicyclo[3.1.0]hexan-3-yl)pyridin-3-yl)ethyl)-1H-pyrazol-4-yl)-1-(l1-oxidanyl)-114-pyridine-3-carboxamide] | 0.0015 | 0.26
3 | Cc1ccc(Cl)c(F)c1-c1cncc(C(=O)Nc2cnn(C(C)c3cnc(N4C[C@H]5C[C@H]5C4=O)nc3C)c2)n1 (single isomer, unassigned) [Example 108, 6-(3 -Chloro-2-fluoro-6-methylphenyl)-N-(1-((S or R)-1-(4-methyl-2-((1R,5S)-2-oxo-3-azabicyclo[3.1.0]hexan-3-yl)pyrimidin-5-yl)ethyl)-1H-pyrazol-4-yl)pyrazine-2-carboxamide] | 0.0166 | > 10
4 | Cc1ccc(Cl)c(F)c1-c1cncc(C(=O)Nc2cnn(C(C)c3cnc(N4C[C@H]5C[C@H]5C4=O)nc3C)c2)n1 (single isomer, unassigned) [Example 109, 6-(3 -Chloro-2-fluoro-6-methylphenyl)-N-(1-((R or S)-1-(4-methyl-2-((1R,5S)-2-oxo-3-azabicyclo[3.1.0]hexan-3-yl)pyrimidin-5-yl)ethyl)-1H-pyrazol-4-yl)pyrazine-2-carboxamide] | 0.0051 | 1.92
5 | Cc1c(C(C)n2cc(NC(=O)c3cncc(-c4c(C(F)F)ccc(Cl)c4F)n3)cn2)nnc(N2C[C@H]3C[C@H]3C2=O)c1C (single isomer, unassigned) [Example 110, 6-(3-Chloro-6-(difluoromethyl)-2-fluorophenyl)-N-(1-((S or R)-1-(4,5-dimethyl-6-((1R,5S)-2-oxo-3-azabicyclo[3.1.0]hexan-3-yl)pyridazin-3-yl)ethyl)-1H-pyrazol-4-yl)pyrazine-2-carboxamide] | 0.014 | 3.45
6 | Cc1cc(C(C)n2cc(NC(=O)c3cncc(-c4c(OC(F)F)ccc(Cl)c4F)n3)cn2)nnc1N1C[C@H]2C[C@H]2C1=O (single isomer, unassigned) [Example 115, 6-(3-Chloro-6-(difluoromethoxy)-2-fluorophenyl)-N-(1-((R or S)-1-(5-methyl-6-((1R,5S)-2-oxo-3-azabicyclo[3.1.0]hexan-3-yl)pyridazin-3-yl)ethyl)-1H-pyrazol-4-yl)pyrazine-2-carboxamide] | 0.0025 | 0.468
7 | Cc1c(N2C[C@H]3C[C@H]3C2=O)cnc(C(C)n2cc(NC(=O)c3cncc(-c4c(C(F)F)ccc(Cl)c4F)n3)cn2)c1N (single isomer, unassigned) [Example 117, N-(1-((S or R)-1-(3-Amino-4-methyl-5-((1R,SS)-2-oxo-3-azabicyclo[3.1.0]hexan-3-yl)pyridin-2-yl)ethyl)-1H-pyrazol-4-yl)-6-(3-chloro-6-(difluoromethyl)-2-fluorophenyl)pyrazine-2-carboxamide] | 0.0019 | > 10
8 | Cc1cc(C(C)n2cc(NC(=O)c3cc(-c4c(C(F)F)ccc(Cl)c4F)nnc3C)cn2)cnc1N1C[C@H]2C[C@H]2C1=O (single isomer, unassigned) [Example 121, 6-(3-Chloro-6-(difluoromethyl)-2-fluorophenyl)-3-methyl-N-(1-((S or R)-1-(5-methyl-6-((1R,5S)-2-oxo-3-azabicyclo[3.1.0]hexan-3-yl)pyridin-3-yl)ethyl)-1H-pyrazol-4-yl)pyridazine-4-carboxamide] | 0.0045 | > 10
9 | Cc1cc(C(C)n2cc(NC(=O)c3cc(-c4c(C(F)F)ccc(Cl)c4F)nnc3C)cn2)cnc1N1C[C@H]2C[C@H]2C1=O (single isomer, unassigned) [Example 122, 6-(3-Chloro-6-(difluoromethyl)-2-fluorophenyl)-3-methyl-N-(1-((R or S)-1-(5-methyl-6-((1R,5S)-2-oxo-3-azabicyclo[3.1.0]hexan-3-yl)pyridin-3-yl)ethyl)-1H-pyrazol-4-yl)pyridazine-4-carboxamide] | 0.0142 | 5.26
10 | Cc1ncc(-c2c(OC(F)F)ccc(Cl)c2F)nc1C(=O)Nc1cnn(C(C)c2cnc(N3C[C@H]4C[C@H]4C3=O)c(C)n2)c1 (single isomer, unassigned) [Example 123, 6-(3-Chloro-6-(difluoromethoxy)-2-fluorophenyl)-3-methyl-N-(1-((S or R)-1-(6-methyl-5-((1R,5S)-2-oxo-3-azabicyclo[3.1.0]hexan-3-yl)pyrazin-2-yl)ethyl)-1H-pyrazol-4-yl)pyrazine-2-carboxamide] | 0.001 | 0.364
11 | COCc1ncc(-c2c(C(F)F)ccc(Cl)c2F)nc1C(=O)Nc1cnn(C(C)c2cnc(N3C[C@H]4C[C@H]4C3=O)c(C)n2)c1 (single isomer, unassigned) [Example 125, 6-(3-Chloro-6-(difluoromethyl)-2-fluorophenyl)-3-(methoxymethyl)-N-(1-((S or R)-1-(6-methyl-5-((1R,5S)-2-oxo-3-azabicyclo[3.1.0]hexan-3-yl)pyrazin-2-yl)ethyl)-1H-pyrazol-4-yl)pyrazine-2-carboxamide] | 0.0012 | 0.449
12 | Cc1ncc(-c2c(C(F)F)ccc(Cl)c2F)nc1C(=O)Nc1cnn(C(C)c2cnc(N3C[C@H]4C[C@H]4C3=O)c(F)c2C)c1 (single isomer, unassigned) [Example 128, 6-(3-Chloro-6-(difluoromethyl)-2-fluorophenyl)-N-(1-((R or S)-1-(5-fluoro-4-methyl-6-((1R,5S)-2-oxo-3-azabicyclo[3.1.0]hexan-3-yl)pyridin-3-yl)ethyl)-1H-pyrazol-4-yl)-3-methylpyrazine-2-carboxamide] | 0.0071 | 5.27

Continued by falling IC50 (Human plasma kallikrein), values first:

Row | IC50 (Human plasma kallikrein) [µM] | IC50 (human Factor XIa) [µM] | SMILES
13 | 0.001 | 7.57 | Cc1ncc(-c2c(C(F)F)ccc(Cl)c2F)nc1C(=O)Nc1cnn(C(C)c2ncc(N3C[C@H]4C[C@H]4C3=O)c(C)c2N)c1 (single isomer, unassigned) [Example 118, N-(1-((R or S)-1-(3-Amino-4-methyl-5-((1R,5S)-2-oxo-3-azabicyclo[3.1.0]hexan-3-yl)pyridin-2-yl)ethyl)-1H-pyrazol-4-yl)-6-(3-chloro-6-(difluoromethyl)-2-fluorophenyl)-3-methylpyrazine-2-carboxamide]
14 | 0.0007 | 0.558 | Cc1cc(C(C)n2cc(NC(=O)c3cncc(-c4c(OC(F)F)ccc(Cl)c4F)n3)cn2)nnc1N1C[C@H]2C[C@H]2C1=O (single isomer, unassigned) [Example 114, 6-(3-Chloro-6-(difluoromethoxy)-2-fluorophenyl)-N-(1-((S or R)-1-(5-methyl-6-((1R,5S)-2-oxo-3-azabicyclo[3.1.0]hexan-3-yl)pyridazin-3-yl)ethyl)-1H-pyrazol-4-yl)pyrazine-2-carboxamide]
15 | 0.0006 | 0.782 | Cc1cc(C(C)n2cc(NC(=O)c3nc(-c4c(C(F)F)ccc(Cl)c4F)cnc3C)cn2)cnc1N1C[C@H]2C[C@H]2C1=O (single isomer, unassigned) [Example 119, 6-(3-Chloro-6-(difluoromethyl)-2-fluorophenyl)-3-methyl-N-(1-((S or R)-1-(5-methyl-6-((1R,5S)-2-oxo-3-azabicyclo[3.1.0]hexan-3-yl)pyridin-3-yl)ethyl)-1H-pyrazol-4-yl)pyrazine-2-carboxamide]
16 | 0.0006 | 0.963 | Cc1ncc(-c2c(OC(F)F)ccc(Cl)c2F)nc1C(=O)Nc1cnn(C(C)c2cnc(N3C[C@H]4C[C@H]4C3=O)c(C)n2)c1 (single isomer, unassigned) [Example 124, 6-(3-Chloro-6-(difluoromethoxy)-2-fluorophenyl)-3-methyl-N-(1-((R or S)-1-(6-methyl-5-((1R,5S)-2-oxo-3-azabicyclo[3.1.0]hexan-3-yl)pyrazin-2-yl)ethyl)-1H-pyrazol-4-yl)pyrazine-2-carboxamide]
17 | 0.0005 | 0.149 | Cc1cc(C(C)n2cc(NC(=O)c3nc(-c4c(C(F)F)ccc(Cl)c4F)cnc3C)cn2)cnc1N1C[C@H]2C[C@H]2C1=O (single isomer, unassigned) [Example 120, 6-(3-Chloro-6-(difluoromethyl)-2-fluorophenyl)-3-methyl-N-(1-((R or S)-1-(5-methyl-6-((1R,5S)-2-oxo-3-azabicyclo[3.1.0]hexan-3-yl)pyridin-3-yl)ethyl)-1H-pyrazol-4-yl)pyrazine-2-carboxamide]
18 | 0.0005 | 0.596 | Cc1ncc(-c2c(C(F)F)ccc(Cl)c2F)nc1C(=O)Nc1cnn(C(C)c2cnc(N3C[C@H]4C[C@H]4C3=O)c(F)c2C)c1 (single isomer, unassigned) [Example 127, 6-(3-Chloro-6-(difluoromethyl)-2-fluorophenyl)-N-(1-((S or i)-1-(5-fluoro-4-methyl-6-((1R,5S)-2-oxo-3-azabicyclo[3.1.0]hexan-3-yl)pyridin-3-yl)ethyl)-1H-pyrazol-4-yl)-3-methylpyrazine-2-carboxamide]
19 | 0.0004 | 0.108 | Cc1c(C(C)n2cc(NC(=O)c3cncc(-c4c(C(F)F)ccc(Cl)c4F)n3)cn2)nnc(N2C[C@H]3C[C@H]3C2=O)c1C (single isomer, unassigned) [Example 111, 6-(3-Chloro-6-(difluoromethyl)-2-fluorophenyl)-N-(1-((R or S)-1-(4,5-dimethyl-6-((1R,5S)-2-oxo-3-azabicyclo[3.1.0]hexan-3-yl)pyridazin-3-yl)ethyl)-1H-pyrazol-4-yl)pyrazine-2-carboxamide]
